Results as given in US20040166058A1, “Ethylenedicysteine (EC)-drug conjugates, compositions and methods for tissue specific disease imaging” (Board of Regents, The University of Texas System, priority 2002, published 2004).

Test system: RBA CRL-1747 mammary tumor
Assay: Biodistribution in mammary (breast) tumor-bearing rats
Format: in vivo
Conditions: iv
Experimental: Biodistribution was assessed in mammary tumor-bearing rats (RBA CRL-1747, n=3/time interval, iv). Studies were performed 14 to 17 days after implantation when tumors reached approximately 1 cm in diameter. Following administration of the radiotracer, rats were sacrificed at 0.5-4 hrs. The selected tissues were excised, weighed and counted for radioactivity by using a gamma counter (Packard Instruments, Downers Grove, Ill.). The biodistribution of tracer in each sample was calculated as percentage of the injected dose per gram of tissue wet weight (% ID/g).
Biodistribution was assessed in breast tumor-bearing rats (RBA CRL-1747, n=3/time interval, iv). Studies were performed 14 to 17 days after implantation when tumors reached approximately 1 cm in diameter. Following administration of the radiotracer, rats were sacrificed at 0.5-4 hrs. The selected tissues were excised, weighed and counted for radioactivity by using a gamma counter (Packard Instruments, Downers Grove, Ill.). The biodistribution of tracer in each sample was calculated as percentage of the injected dose per gram of tissue wet weight (% ID/g).

## O=C(O)[C@@H]1C[S][99Tc]23(=[O])[S]C[C@@H](C(=O)O)[N]2CC[N]13 [^99mTc-EC, ^99mTc-L,L-ethylenedicysteine, reference compound]
1 Hour
  Biodistribution Blood: 0.273 ± 0.039 % ID/g
  Biodistribution Intestine: 0.787 ± 0.106 % ID/g
  Biodistribution Kidney: 8.991 ± 0.268 % ID/g
  Biodistribution Liver: 0.367 ± 0.006 % ID/g
  Biodistribution Lung: 0.187 ± 0.029 % ID/g
  Biodistribution Muscle: 0.043 ± 0.002 % ID/g
  Biodistribution Stomach: 0.127 ± 0.106 % ID/g
  Biodistribution Thyroid: 0.229 ± 0.118 % ID/g
  Biodistribution Tumor: 0.149 ± 0.020 % ID/g
  Biodistribution Urine: 11.045 ± 6.158 % ID/g
  Tumor/Blood: 0.544 ± 0.004
  Tumor/Lung: 0.797 ± 0.022
  Tumor/Muscle: 3.414 ± 0.325
2 Hour
  Biodistribution Blood: 0.211 ± 0.001 % ID/g
  Biodistribution Intestine: 0.401 ± 0.093 % ID/g
  Biodistribution Kidney: 9.116 ± 0.053 % ID/g
  Biodistribution Liver: 0.286 ± 0.073 % ID/g
  Biodistribution Lung: 0.144 ± 0.002 % ID/g
  Biodistribution Muscle: 0.028 ± 0.009 % ID/g
  Biodistribution Stomach: 0.037 ± 0.027 % ID/g
  Biodistribution Thyroid: 0.106 ± 0.003 % ID/g
  Biodistribution Tumor: 0.115 ± 0.002 % ID/g
  Biodistribution Urine: 13.192 ± 4.505 % ID/g
  Tumor/Blood: 0.546 ± 0.010
  Tumor/Lung: 0.797 ± 0.002
  Tumor/Muscle: 4.425 ± 1.397
4 Hour
  Biodistribution Blood: 0.149 ± 0.008 % ID/g
  Biodistribution Intestine: 0.103 ± 0.009 % ID/g
  Biodistribution Kidney: 7.834 ± 1.018 % ID/g
  Biodistribution Liver: 0.234 ± 0.016 % ID/g
  Biodistribution Lung: 0.120 ± 0.012 % ID/g
  Biodistribution Muscle: 0.019 ± 0.001 % ID/g
  Biodistribution Stomach: 0.043 ± 0.014 % ID/g
  Biodistribution Thyroid: 0.082 ± 0.005 % ID/g
  Biodistribution Tumor: 0.096 ± 0.005 % ID/g
  Biodistribution Urine: 8.693 ± 2.981 % ID/g
  Tumor/Blood: 0.649 ± 0.005
  Tumor/Lung: 0.798 ± 0.007
  Tumor/Muscle: 5.093 ± 0.223
30 Min.
  Biodistribution Blood: 0.435 ± 0.29 % ID/g
  Biodistribution Intestine: 0.173 ± 0.029 % ID/g
  Biodistribution Kidney: 7.914 ± 0.896 % ID/g
  Biodistribution Liver: 0.508 ± 0.062 % ID/g
  Biodistribution Lung: 0.272 ± 0.019 % ID/g
  Biodistribution Muscle: 0.060 ± 0.006 % ID/g
  Biodistribution Stomach: 0.136 ± 0.060 % ID/g
  Biodistribution Thyroid: 0.219 ± 0.036 % ID/g
  Biodistribution Tumor: 0.342 ± 0.163 % ID/g
  Biodistribution Urine: 9.124 ± 0.808 % ID/g
  Tumor/Blood: 0.776 ± 0.322
  Tumor/Lung: 1.256 ± 0.430
  Tumor/Muscle: 5.841 ± 3.253
